{"source": "patent US20090042823A1", "about": "(priority 2007, published 2009)", "tested_on": "PR8 virus", "set-up": "species or system influenza A virus", "settings": "in vivo"}
{"smiles": "CCOC(=O)C1=C[C@@H](OC(CC)CC)[C@H](NC(C)=O)[C@@H](N)C1", "note": "[oseltamivir drug, oseltamivir]", "values": [{"measurement": "influenza viral titer relative to GFP control siRNA", "value": "reduced influenza viral titers"}]}
